# Data as given in patent US20060263453A1, “Methods and compositions for modulating glutamate dehydrogenase” (priority 2004, published 2006).
# Experiments:
# islets = assay: [U-14C]-glutamine oxidation in islets; assay type: cell-based, rat
# Description: In a first experiment, a batch of 100 islets were incubated with glucose-free Krebs-Ringer bicarbonate buffer, as described herein, containing 20 μM EGCG or 20 μM EGC and 2 mM glutamine for 60 minutes. The islets were then incubated in the presence of varying concentrations of BCH (shown in FIG. 7A) for 60 minutes, and for an additional 60 minutes in the presence of 2 mCi [U-^14C]-glutamine (NEN-Life Science Products, UK). Next, [U-^14C]-glutamine oxidation in the incubated islets was measured. A trap filter was placed in each tightly sealed glass tube of the perifusion apparatus to collect the ^14CO2 produced by the islets, and the amount of radioactivity was determined by liquid scintillation counting. The results are summarized in FIG. 7A, and are presented as means±S.E. from 4 separate experiments. […] The islets were then incubated in the presence of 10 mM BCH (or no BCH—to measure “baseline” glutamine oxidation levels) for 60 minutes. The islets were then incubated for an additional 60 minutes in the presence of 2 mCi [U-^14C]-glutamine (NEN-Life Science Products, UK). Next, [U-^14C]-glutamine oxidation in the incubated islets was measured, as described above.
# Bovine GDH (bGDH) = target: T1, Bovine GDH (bGDH) (Bos taurus, UniProt P00366); assay: reductive amination reaction catalyzed by bovine GDH (NADH absorbance at 340 nm); assay type: biochemical; settings: FIG. 1A
# T1 construct: purchased Sigma Aldrich Chemical Company (St. Louis, Mo.)
# T1 sequence (P00366 58-558): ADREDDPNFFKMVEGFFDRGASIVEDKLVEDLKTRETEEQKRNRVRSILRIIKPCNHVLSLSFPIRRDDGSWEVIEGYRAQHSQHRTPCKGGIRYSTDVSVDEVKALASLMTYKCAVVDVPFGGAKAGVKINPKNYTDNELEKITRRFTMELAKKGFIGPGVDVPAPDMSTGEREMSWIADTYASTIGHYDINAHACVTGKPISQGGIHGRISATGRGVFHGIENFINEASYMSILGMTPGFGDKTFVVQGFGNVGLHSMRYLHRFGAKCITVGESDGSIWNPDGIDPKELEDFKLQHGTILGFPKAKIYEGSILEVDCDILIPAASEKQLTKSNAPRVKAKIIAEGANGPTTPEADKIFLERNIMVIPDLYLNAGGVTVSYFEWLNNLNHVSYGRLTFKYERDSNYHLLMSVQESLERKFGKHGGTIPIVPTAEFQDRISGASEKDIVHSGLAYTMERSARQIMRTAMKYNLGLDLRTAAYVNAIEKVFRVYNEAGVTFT
# Description: In this Example, the effects of epigallocatechin gallate (EGCG), epigallocatechin (EGC), epicatechin gallate (ECG), and epicatechin (EC) from Camellia sinensis on GDH activity were tested. Bovine GDH (bGDH) was used in this Example, which was obtained as an aqueous (NH4)2SO4 suspension from Sigma Aldrich Chemical Company (St. Louis, Mo.).
# First, aliquots of GDH were extensively dialyzed against 0.1M sodium phosphate buffer, pH 7.0, which contained 1 mM ethylenediaminetetraacetic acid (EDTA). The enzyme concentrations were adjusted to 1 mg/ml and the amount of enzyme added to the reaction mixture, for kinetic analysis, was adjusted to yield optimal steady state velocity measurements. All solutions were made immediately prior to use. Enzyme assays were performed by monitoring reduced coenzyme absorbance at 340 nm using a Shimadzu UV-1601 spectrophotometer. The reductive amination reactions were performed in 3 mL volumes at pH 7.0 in the presence of 0.1 mM nicotinamide adenine dinucleotide (NADH), 50 mM NH4Cl, and 5 mM 2-oxoglutarate. The rate of NADH oxidation was calculated using an extinction coefficient of 6.22 mM^−1 cm^−1.
# [1] = ethanol, DMSO, dimethyl formamide; cited from earlier work
# rat islets [2] = assay: BCH-stimulated insulin secretion and oxygen consumption in perifused islets; assay type: cell-based, Wistar rat; settings: 20 μM
# Description: In this Example, the effects of EGCG and EGC on LSIS were measured, while simultaneously monitoring respiration rates. More particularly, the effects of EGCG (20 μM) and EGC (20 μM) on BCH-stimulated insulin secretion were measured. First, 1000 adult male Wistar rat islets were isolated as described above and were cultured on a glass perfusion chamber in 10 mM glucose for 3 days. Next, the islets were perifused in an oxygen consumption measurement apparatus containing BCH, along with 0 μM EGCG and 0 μM EGC, 20 μM EGCG, or 20 μM EGC. The perifusion apparatus used in these Examples consisted of a peristaltic pump, a water bath (37° C.), a gas exchanger (artificial lung: media flowed through the thin-walled silastic tubing loosely coiled in a glass jar that contained 20% O2 and 5% CO2 balanced with N2), and fraction collector. All transfer lines were insulated. After the system was provided with 20 μM EGCG or 20 μM EGC, oxygen partial pressure was recorded every 10 seconds by phosphorescence lifetimes of an oxygen-sensitive porphyrin (palladium-mesotetra; 4-carboxyphenyl porphyrin dendrimer). The dye molecules were excited with pulses at 524 nm from a UV lead and emission was measured at 690 nm. The inflow oxygen tension was measured in the absence of islets in the chamber before and after each experiment. The perifusate was a Krebs buffer (pH 7.4) containing 2.2 mM Ca^2+, 1% bovine serum albumin equilibrated with 20% O2 and 5% CO2 balanced with N2. The flow rate was […] and samples were collected every 2 minutes for insulin measurements by radioimmunoassay. The results are summarized in FIG. 6, and are presented as means±S.E. for 1000 islets from 3 separate experiments for EGCG (and from 1 experiment for EGC). Due to the high density of data, S.E. is only shown in every 20 samples.
# rat islets [3] = assay: glucose stimulated insulin secretion (GSIS), short run-down (50 minutes), glucose ramp; assay type: cell-based; settings: 20 μM, FIGS. 8A and 8B
# Description: In this Example, the effect of EGCG on glucose stimulated insulin secretion (GSIS) was examined. Isolated rat islets were cultured with 20 mM glucose (FIG. 8A) and 10 mM glucose (FIG. 8B) for 3 days, then perifused in the absence of glucose for 50 minutes and in the presence of 0 μM EGCG; 20 μM EGCG; or 20 μM EGC. Next, the islets were stimulated by a glucose ramp (0 to 25 mM, 0.5 mM/minute). Finally, the islets were exposed to 30 mM KCl. Insulin levels were measured every minute by radioimmunoassay. The results shown in FIG. 8A are presented as means±S.E. for 100 islets from 3 separate experiments (and means±S.E. for 100 islets from 1 experiment for FIG. 8B).
# rat islets [4] = assay: glucose stimulated insulin secretion in 120 minute run-down islets; assay type: cell-based
# Description: Under brief “run-down” conditions used for the above GSIS analysis, where glucose was removed from the cells for only […], the levels of high-energy metabolites (i.e., GTP and ATP) have not been depleted and these effectively shut down GDH activity. This, in turn, eliminated any effect GDH might have on insulin secretion. Therefore, the effects of EGCG were also tested on […] that had been “run-down” for a longer period of time (120 minutes) prior to glucose stimulation (FIG. 11). Specifically, isolated rat islets were cultured with 10 mM glucose for 3 days and then perifused in the absence of glucose and in the presence of 0 or 20 μM EGCG (or 20 μM EGC) for “run-down” periods of 120 minutes prior to stimulation with a glucose ramp (0 to 25 mM, 0.5 mM/minute). Finally, islets were exposed to 30 mM KCl. The insert highlighted the insulin secretion from time=120 minutes to 140 minutes.
smiles,measurement,setting,value
"NC1(C(=O)O)CC2CCC1C2 (stereo not drawn) [BCH, beta-2-aminobicyclo[2.2.1]heptane-2-carboxylic acid, reference compound]",stimulation of glutamine oxidation,"islets; 100 islets, 2 mM glutamine, FIG. 7A",dose-dependently stimulated
"[N-]=[N+]=CC(=O)CC[C@H](N)C(=O)O [DON, 6-diazo-5-oxo-L-norleucine, reference compound]",effect on 10 mM BCH-stimulated glutamine oxidation,"islets; 3 mM glutamine, FIG. 7B, 7C",blocks glutaminolysis to levels lower than the unstimulated β-cells at high concentrations
"O=C(O[C@@H]1Cc2c(O)cc(O)cc2O[C@@H]1c1ccc(O)c(O)c1)c1cc(O)c(O)c(O)c1 [ECG, (2R,3R)-2-(3,4-Dihydroxyphenyl)-3,4-dihydro-1 (2H)-benzopyran-3,5,7-triol 3-(3,4,5-trihydroxybenzoate)]",potent inhibitor of GDH activity,Bovine GDH (bGDH),potent inhibitors
same,soluble in organic solvents,[1],soluble
"Oc1cc(O)c2c(c1)O[C@H](c1cc(O)c(O)c(O)c1)[C@H](O)C2 [EGC, epigallocatechin, reference compound]",potent inhibitor of GDH activity,Bovine GDH (bGDH),not
same,sensitization of the β-cells to BCH,rat islets [2],slight sensitization
same,effect on LSIS (BCH-induced insulin secretion),rat islets [2]; FIG. 6A,did not cause significant inhibition
same,effect on BCH-induced increase in respiration rates,rat islets [2]; FIG. 6B,nor did it have as strong of an effect on respiration as compared to EGCG
same,block of BCH stimulation of glutaminolysis (glutamine oxidation),"islets; 20 μM, 2 mM glutamine, FIG. 7A",not
same,effect on GSIS,rat islets [3],neither EGC nor EGCG affected
same,potentiation of GSIS,"rat islets [4]; 20 μM, 120 minute run-down, FIG. 11",not
same,effect on KCl-stimulated release of insulin,rat islets [4]; 30 mM KCl,neither EGCG or EGC affected
same,sensitization of the cells at low glucose concentrations,"rat islets [4]; FIG. 11, inset",slightly sensitize
